From US20180106782A1, “HIGH THROUGHPUT CARDIOTOXICITY SCREENING PLATFORM” (The Board of Trustees of the Leland Stanford Junior …, priority 2016, published 2018)

Experiments:
μpatterned hiPSC-CMs [1] = experiment: sarcomere length (sl) and sarcomere shortening (ss) from videos of labeled myofibrils; assay type: cell-based, human; conditions: for average values of sl (sarcomere length): single cell with labeled myofibrils (FIG. 7A, 7E)
Method: We analyzed videos of beating patterned hiPSC-CMs with LifeAct-labeled myofibrils (Ribeiro 2015a) to quantify the organization and dynamics of sarcomeres along myofibrils. Sarcomere shortening and movement during the contractile cycle was determined from analyzing how the size of all labeled sarcomeres in a single hiPSC-CM varies during each of its contractile cycles. The minimal length that separates two proximal Z-lines defines sarcomere size. LifeAct labels actin between Z-lines, which correspond to dark lines in LifeAct-labeled myofibrils. (Ribeiro 2015a) Therefore, the minimal distance between adjacent dark lines in LifeAct-labeled myofibrils defines sarcomere size. We used four different approaches to quantify sarcomere size along LifeAct-labeled myofibrils from frames of single beating hiPSC-CMs (FIG. 12) and used the second approach for performing better when analyzing videos with minimal user intervention.
The second approach (FIG. 12B) is a novel method that we developed to determine sarcomere lengths in each frame without the need of curve-fitting procedures or radial Fourier transforms. The approach consists of automatically measuring the length of the segment between adjacent Z-lines that is parallel to the direction of myofibril alignment (FIG. 15). The algorithm for this approach measured the length from Z-line i to Z-line i+1 using information on myofibril orientation in the region around Z-line i and Z-line i+1 and considering a skeleton of sarcomeres generated as previously detailed for the first approach. The algorithm developed first a map of all points that compose the sarcomere skeleton and each point was taken once as a starting location of a path along the direction of myofibril orientation that stopped when another Z-line in the skeleton was reached (FIG. 15). The length between adjacent Z-lines was therefore defined as the Euclidean distance between start and end points calculated with this method (FIG. 15). The path was calculated pixel by pixel within the skeletonized image. For each new pixel of the path, the algorithm evaluated what the other pixel of the path was based on the local orientation of the myofibril. For pixels that were starting points or pixels already in a path, the local orientation angle of myofibrils was taken as the deciding factor to determine the next path pixel. In the algorithm, we particularly defined that the y direction of the path could be chosen freely, but only pixels in the +x direction could be candidates for the next element of the path (FIG. 15). This definition derived from the fact that every point composing the skeleton was considered as a starting point and because orientations of myofibrils are in the [0,Th] range. In relation to a known point of a path, the next neighboring pixel to be included as the next element of that path could be the pixel on the right, on the top, on the bottom, on the top right or on the bottom right (FIG. 15-B). Given this condition, a 10° angle or a 0° angle of known myofibril orientation lead to the same decision for the next pixel to include in the path: the pixel on the right. We estimated the local orientation of myofibrils through the MATLAB-written code RIDGEORIENT. (Kovesi 2000) This tool indicates the principle ridge direction through local gradient variations. By definition, the gradient is […] to the main orientation. (Krause 2009)
The global orientation of a myofibril between Z-lines was also taken in consideration for deciding the next pixel in the path between Z-lines (FIG. 15) because small angles can add up during the extending of the line defined by the path and better reveal the real myofibril orientation. For example, starting at a pixel on a Z-line (x1, y1) with a local orientation angle θ1=10°, the next pixel would have to be (x1+1, y1). If θ2=10°, the next pixel would again be to the right, adding (x1+2, y1) to the path. […]

μpatterned hiPSC-CMs [2] = experiment: cell movement from brightfield videos of beating μpatterned hiPSC-CMs (cross-correlation within ROI); assay type: cell-based, human; conditions: for aδ (temporal asynchronicity) / d (displacement) / VR (peak velocity of relaxation) / VC (peak velocity of contraction) / aθ (spatial asynchronicity): brightfield, single cell
Method: We imaged the movement of beating hiPSC-CMs and the displacement of fluorescent microbeads embedded in polyacrylamide substrates with a Zeiss Axiovert 200M inverted microscope equipped with a Zeiss Axiocam MRm CCD camera. This microscope also contained an environmental chamber (PeCon) to set temperature at 37° C. Unless otherwise noted, we acquired microscopy videos while electrically pacing hiPSC-CMs with 10 ms-wide bipolar pulses of electric-field stimulation at 10-15 V with a frequency of 1 Hz (Myopacer, lonOptix). To induce contractile changes in hiPSC-CMs, we added drugs known to affect CM contractile machinery to the culture medium. We analyzed the mechanical output of cells after adding drugs. […] We exposed single cells to concentrations of 0.1 μM and then 1 μM of isoproterenol (Sigma, Saint Louis, Mo.) to test how the contractile activity of each cell varied after adding different amounts of isoproterenol to the medium. Omecamtiv mecarbil (Adooq Bioscience, Irvine, Calif.) was also added to the cell culture medium at 10 nM or 0.1 μM to detect different variations in the contractile response of hiPSC-CMs after adding one of these concentrations. We acquired videos of single beating hiPSC-CMs imaged with differential interference contrast microscopy at frame rates higher than 30 fps for a time between 4 and 10 s. We used MATLAB (R2014b version, Mathworks) to convert pixels of each frame to microns. Zeiss files (.czi) contained information on the pixel dimensions and were imported into MATLAB using the Bioformats package. ([…] 2010) We also confirmed the software calibration with calibration slides (Electron Microscopy Sciences). For each video of a beating single cell, we selected a region of interest (ROI) around the borders of the cell and analyzed average displacements within this ROI (FIG. 1B). For this purpose, we selected a baseline frame, within all the frames of the video, which represented the relaxed state of the cell and calculated average displacement within the ROI for the remaining frames relative to the baseline frame. As noted bellow, this procedure was automated. We then calculated displacements from microscopy videos with cross-correlation approaches: digital image correlation (DIC) and particle image velocimetry (PIV) approaches. […] Cross-correlation is done between sub-blocks of the image and the highest correlation indicates the maximum likelihood that blocks match. We tested the following cross-correlation algorithms: PIVIab, ImageJ PIV (Tseng 2012) and Ncorr. PIVIab and Ncorr were written in MATLAB, while ImageJ PIV is a plugin for ImageJ (NIH). Ncorr generally performs better, but uses more computational time. (Blaber 2015) We measured two parameters of asynchronicity of contractile movement within the ROI: spatial asynchronicity (aθ) of contractile movement and temporal asynchronicity (aδ) of contractile movement. Spatial synchronicity occurs when the different regions of the cell move along the same directions and temporal synchronicity occurs when all the regions of the cell move at the same time. To calculate aθ, we first computed the direction of movement (θ) for every movement vector of different regions i inside the ROI (FIG. 1B) at each frame as defined by For the calculation of aδ, we first determined the mean offset time b between the peaks of the displacement curves of different regions i (dcurrent) in the ROI and the peaks of the mean displacement ([…] occurs within the same ROI by mean, cross-correlation between the two curves, then refined this offset result using main peaks only (FIG. 8A): […]

SMILES: COC(=O)N1CCN(Cc2cccc(NC(=O)Nc3ccc(C)nc3)c2F)CC1 [omecamtiv mecarbil]
- maximal average sl (μpatterned hiPSC-CMs [1]; chronic and acute effects of omecamtiv mecarbil (FIG. 7F)): decrease
- minimum average sl (μpatterned hiPSC-CMs [1]; chronic and acute effects of omecamtiv mecarbil (FIG. 7G)): decrease
- average ss (μpatterned hiPSC-CMs [1]; chronic and acute effects of omecamtiv mecarbil (FIG. 7H)): decrease
- average values of sl (sarcomere length) (μpatterned hiPSC-CMs [1]): decreased
- acute dmax from brightfield videos (μpatterned hiPSC-CMs [2]; 0.1 μM omecamtiv mecarbil, single cell (FIG. 6H)): considerable acute increase
- absolute values of VC and VR from brightfield videos, acute (μpatterned hiPSC-CMs [2]; 0.1 μM omecamtiv mecarbil, single cell (FIG. 6I)): increase
- aδ (temporal asynchronicity) (μpatterned hiPSC-CMs [2]; OM 0.1 μM (FIG. 6), row 'acute', no OM: 0.03): 0.21 s
- d (displacement) (μpatterned hiPSC-CMs [2]; OM 0.1 μM (FIG. 6), row 'acute', no OM: 0.79): 0.18 μm
- VR (peak velocity of relaxation) (μpatterned hiPSC-CMs [2]; OM 0.1 μM (FIG. 6), row 'acute', no OM: 2.87): 0.54 μm/s
- VC (peak velocity of contraction) (μpatterned hiPSC-CMs [2]; OM 0.1 μM (FIG. 6), row 'acute', no OM: 3.53): 0.71 μm/s
- aθ (spatial asynchronicity) (μpatterned hiPSC-CMs [2]; OM 0.1 μM (FIG. 6), row 'acute', no OM: 44.5): 70.1 °
- aδ (temporal asynchronicity) (μpatterned hiPSC-CMs [2]; OM 0.1 μM (FIG. 6), row 'chronic', no OM: 0.03): 0.04 s
- d (displacement) (μpatterned hiPSC-CMs [2]; OM 0.1 μM (FIG. 6), row 'chronic', no OM: 0.79): 1.05 μm
- VR (peak velocity of relaxation) (μpatterned hiPSC-CMs [2]; OM 0.1 μM (FIG. 6), row 'chronic', no OM: 2.87): 3.42 μm/s
- VC (peak velocity of contraction) (μpatterned hiPSC-CMs [2]; OM 0.1 μM (FIG. 6), row 'chronic', no OM: 3.53): 4.35 μm/s
- aθ (spatial asynchronicity) (μpatterned hiPSC-CMs [2]; OM 0.1 μM (FIG. 6), row 'chronic', no OM: 44.5): 68.8 °

SMILES: CC(C)NCC(O)c1ccc(O)c(O)c1 (stereo not drawn) [isoproterenol]
- minimal average sl (μpatterned hiPSC-CMs [1]; 0.1 μM isoproterenol): decreased
- ss (sarcomere shortening) (μpatterned hiPSC-CMs [1]; 0.1 μM isoproterenol (FIG. 7D)): considerably increased
- minimal average sl (μpatterned hiPSC-CMs [1]; 1 μM isoproterenol): decrease even more
- increase of ss (sarcomere shortening) (μpatterned hiPSC-CMs [1]; 1 μM isoproterenol (FIG. 7D)): not with 1 μM
- maximal mean values of sl (μpatterned hiPSC-CMs [1]; 1 μM isoproterenol, relative to before adding (FIG. 7B)): decreased
- average values of sl (sarcomere length) (μpatterned hiPSC-CMs [1]): decreased
- aδ (temporal asynchronicity) (μpatterned hiPSC-CMs [2]; ISO 0.1 (μM per FIG. 4), no ISO: 0.01): 0.02 s
- d (displacement) (μpatterned hiPSC-CMs [2]; ISO 0.1 (μM per FIG. 4), no ISO: 1.09): 1.3 μm
- VR (peak velocity of relaxation) (μpatterned hiPSC-CMs [2]; ISO 0.1 (μM per FIG. 4), no ISO: 3.78): 5.37 μm/s
- VC (peak velocity of contraction) (μpatterned hiPSC-CMs [2]; ISO 0.1 (μM per FIG. 4), no ISO: 6.85): 9.3 μm/s
- aθ (spatial asynchronicity) (μpatterned hiPSC-CMs [2]; ISO 0.1 (μM per FIG. 4), no ISO: 31.4): 75.5 °
- aδ (temporal asynchronicity) (μpatterned hiPSC-CMs [2]; ISO 1 (μM per FIG. 4), no ISO: 0.01): 0.02 s
- d (displacement) (μpatterned hiPSC-CMs [2]; ISO 1 (μM per FIG. 4), no ISO: 1.09): 0.68 μm
- VR (peak velocity of relaxation) (μpatterned hiPSC-CMs [2]; ISO 1 (μM per FIG. 4), no ISO: 3.78): 3.65 μm/s
- VC (peak velocity of contraction) (μpatterned hiPSC-CMs [2]; ISO 1 (μM per FIG. 4), no ISO: 6.85): 5.34 μm/s
- aθ (spatial asynchronicity) (μpatterned hiPSC-CMs [2]; ISO 1 (μM per FIG. 4), no ISO: 31.4): 25.3 °
- variations of d, VC, VR, t̂ from brightfield videos between isoproterenol concentrations (μpatterned hiPSC-CMs [2]; six cells, 0.1 and 1 μM isoproterenol (FIG. 9)): did not yield differences in variations of parameters with statistical significance
